Assay results from patent publication US12291534B2, “Aminonorbornane derivative and manufacture method therefor and use thereof” (TRANSTHERA SCIENCES (NANJING), INC., priority 2018, dated 2025).

Columns and labels:
[1] = test system: TMD-8; experiment: In vitro tumor cell proliferation inhibition (CellTiter-Glo), TMD-8; type: cell-based, human
Protocol: (§1) 2. Experiment on In Vitro Tumor Cell Proliferation Inhibition (1) Method • The tumor cell line (TMD-8/OCY-LY10) was suspended in RPMI1640+FBS10% and cultured in an incubator (37° C. 5% CO2). Cells were passaged periodically, and cells at logarithmic growth phase were collected for plating. • Cell staining was performed with trypan blue and viable cells were counted. • Cell concentration was adjusted to 7000 cells/well with medium. • 90 μL of cell suspension was added to a 96-well plate and cell-free culture medium was added to the blank control wells. • Cells in the 96-well plate were incubated overnight in an incubator (37° C., 5% CO2, 100% relative humidity). • Preparation of 400× compound storage plates: test compounds and reference drug were each dissolved in DMSO and 3× diluted from the highest concentration (400 μM) to the lowest concentration (0.61 μM). • Preparation of 10× compound working solutions: 78 μL of cell culture medium was added to a V-bottom 96-well plate, and 2 μL of the compound was pipetted from the 400× compound storage plate into the 96-well plate. Vehicle control wells and blank control wells were added with 2 μL of DMSO. […] Inhibition rates of compounds at different concentrations were calculated in Excel, followed by plotting the inhibition curves and calculating IC50 values with GraphPad Prism. […]

[2] = test system: OCI-LY10 xenograft tumor; experiment: OCI-LY10 xenograft tumor model in CB17/SCID mice; type: in vivo; details: for anti-tumor activity (in words): OCI-LY10 xenograft tumor model
Protocol: (§2) CB17/SCID female mice with serious immune deficiency were purchased from Beijing Vital River Laboratory Animal Technology Co., Ltd. and bred in SPF animal houses. Human OCI-LY10 cells (Shanghai Junrui-UFBN0102) were cultured in an RPMI 1640 culture medium containing 10% fetal bovine serum, 100 U/mL penicillin and 100 μg/mL streptomycin through monolayer culture in vitro in an incubator (37° C. 5% CO2). Routine treatment was performed twice a week for passaging. At a cell saturation of 80%-90% and a required number, the cells were harvested and counted, 0.2 mL (1×10^7) of OCI-LY10 cells (together with matrigel at a volume ratio of 1:1) were subcutaneously inoculated into the right back of each mouse, and the tumor size could be measured about one week after inoculation. Tumor size was measured using a vernier caliper and tumor volume was calculated using the following formula: tumor volume=(length×width^2)/2.

[3] = biological target: BTK (C481S) (Homo sapiens (Human), UniProt Q06187, C481S); experiment: pBTK inhibition in HEK293 cells transfected with BTK(C481S) (ELISA); type: cell-based; details: 2 h incubation
Protocol: For positive (high signal) controls, cells were treated with 0.5% DMSO alone.

[4] = test system: OCI-LY10; experiment: In vitro tumor cell proliferation inhibition (CellTiter-Glo), OCI-LY10; type: cell-based, human
Protocol: as §1

[5] = test system: TMD-8 xenograft tumor; experiment: TMD-8 xenograft tumor model in CB17/SCID mice; type: in vivo; details: for anti-tumor activity (in words): TMD-8 xenograft tumor model
Protocol: as §2, with “TMD-8” for “OCI-LY10”, “Junrui-UFBN1682)” for “Junrui-UFBN0102)”, “C.,” for “C.”, “volume […].” for “volume=(length×width^2)/2.”

Chain of BTK (C481S) (Q06187 whole entry C481S): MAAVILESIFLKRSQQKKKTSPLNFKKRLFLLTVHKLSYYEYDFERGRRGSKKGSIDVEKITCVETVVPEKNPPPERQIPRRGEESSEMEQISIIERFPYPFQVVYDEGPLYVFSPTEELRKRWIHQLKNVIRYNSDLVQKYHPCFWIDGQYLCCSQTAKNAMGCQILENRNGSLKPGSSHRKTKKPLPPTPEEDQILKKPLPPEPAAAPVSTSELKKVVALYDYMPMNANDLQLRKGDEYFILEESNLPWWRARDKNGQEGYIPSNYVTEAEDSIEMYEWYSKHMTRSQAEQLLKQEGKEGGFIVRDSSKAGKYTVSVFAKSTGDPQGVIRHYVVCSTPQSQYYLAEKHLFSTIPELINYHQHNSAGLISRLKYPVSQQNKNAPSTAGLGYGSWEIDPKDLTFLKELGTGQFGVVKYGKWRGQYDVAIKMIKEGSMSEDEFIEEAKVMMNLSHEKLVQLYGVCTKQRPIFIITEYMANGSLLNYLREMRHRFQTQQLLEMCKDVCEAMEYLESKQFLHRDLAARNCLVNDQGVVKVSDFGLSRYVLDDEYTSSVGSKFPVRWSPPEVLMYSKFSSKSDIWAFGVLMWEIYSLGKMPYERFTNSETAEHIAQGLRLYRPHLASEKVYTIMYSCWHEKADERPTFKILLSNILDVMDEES

Structure (SMILES) | inhibition of tumor cell proliferation (in words) [1] | disappearance of xenograft tumors ([2]; 25 mg/kg bid, after 28 days of administration) | disappearance of xenograft tumors ([2]; 50 mg/kg bid, after 21 days of administration) | anti-tumor activity (in words) [2] | tolerance of tumor-bearing mice ([2]; all dosages (25, 50 mg/kg bid)) | body weight of tumor-bearing mice ([2]; all treatment groups) | IC50 [3] | inhibition of tumor cell proliferation (in words) [4] | fraction of xenograft tumors disappeared ([5]; 50 mg/kg bid, after 27 days of administration) | anti-tumor activity (in words) [5] | tolerance of tumor-bearing mice ([5]; all dosages (25, 50 mg/kg bid)) | body weight of tumor-bearing mice ([5]; all treatment groups)
Nc1nccn2c(C34CCC(NC(=O)CN5CCOCC5)(CC3)C4)nc(-c3ccc(C(=O)Nc4cc(C(F)(F)F)ccn4)cc3)c12 [Compound A-10-10, 4-(8-amino-3-(4-(2-morpholinoacetamido)bicyclo[2.2.1]heptan-1-yl)imidazo[1,5-a]pyrazin-1-yl)-N-(4-(trifluoromethyl)pyridin-2-yl)benzamide] | strong inhibition activity | disappeared completely | completely disappeared | extremely strong anti-tumor activity | good tolerance | no significant weight loss | 63 nM | strong inhibition activity | ⅝ | extremely strong anti-tumor activity | good tolerance | no significant weight loss
C=CC(=O)N1CCC[C@@H](n2nc(-c3ccc(Oc4ccccc4)cc3)c3c(N)ncnc32)C1 [Ibrutinib, reference compound] | strong inhibition activity |  |  | extremely strong anti-tumor activity |  |  |  | strong inhibition activity |  | extremely strong anti-tumor activity |  | 
